The record followed here is publication PMC12184311 (2025).

Assay [1] concerns mm3WJ (mismatched 3WJ) (DNA, junction) CGGAACGGCACTCG/CGAGTGCAGCGTGG/CCACGCACGTTCCG
The assay is described as follows: PAGE.

Assay [2] deals with two-base-bulged 3WJ (DNA, junction) CGGAACGAAGCACTCG/CGAGTGCAGCGTGG/CCACGCTCGTTCCG
The assay is described as follows: PAGE.

Assay [3] has as its system one-base-bulged 3WJ (DNA, junction) CGGAACGAGCACTCG/CGAGTGCAGCGTGG/CCACGCTCGTTCCG
The assay is described as follows: PAGE.

In assay [4] the test system is FAM-labelled DS-21 (dsDNA) (DNA, duplex) CCTTCACGCGAACGTAATCCT/AGGATTACGTTCGCGTGAAGG
The assay is described as follows: microscale thermophoresis. To be noted: Na+ 50 mM (NaOAc); 10 mM HEPES, 0.1% Tween, room temperature; tested 1.5 nM to 50 µM Pt-BIMA. A general note: In MST a laser heats a spot of the sample, and binding alters the fluorescence response.

The subject of assay [5] is FAM-labelled 4WJ-22 (FAM-4WJ) (DNA, junction) GCCTAGCATGATACTGCTACCG/CGGTAGCAGTACCGTTGGTGGC/GCCACCAACGGCGTCAACTGCC/GGCAGTTGACGTCATGCTAGGC
The assay is described as follows: microscale thermophoresis. The conditions noted are these: Na+ 50 mM (NaOAc); 10 mM HEPES, 0.1% Tween, room temperature; 20 nM DNA.

In assay [6] the test system is 4WJ-22 (DNA, junction) GCCTAGCATGATACTGCTACCG/CGGTAGCAGTACCGTTGGTGGC/GCCACCAACGGCGTCAACTGCC/GGCAGTTGACGTCATGCTAGGC
The assay is described as follows: MST competition, unlabelled DNA titrated. The conditions noted are these: Na+ 50 mM (NaOAc); IC50 of competitor DNA, not of compound; 20 nM FAM-4WJ-22, 80 nM Pt-BIMA; 10 mM HEPES, 0.1% Tween-20.

For assay [7], the system named is 4WJ-FAM1 (DNA, junction) GCCTAGCATGATACTGCTACCG/CGGTAGCAGTACCGTTGGTGGC/GCCACCAACGGCGTCAACTGCC/GGCAGTTGACGTCATGCTAGGC
The assay is described as follows: FRET, FAM emission. The conditions noted are these: Na+ 50 mM (NaOAc); 10 mM HEPES; 5 µM DNA, 1 equivalent Pt-BIMA; FAM emission up about 3.5-fold.

Assay [8] has as its system FAM-labelled 3WJ-18 (DNA, junction) GTGGCGAGAGCGACGATC/GATCGTCGCAGAGTTGAC/GTCAACTCTTCTCGCCAC
The assay is described as follows: microscale thermophoresis. The conditions noted are these: Na+ 50 mM (NaOAc); 10 mM HEPES, 0.1% Tween, room temperature; error exceeds value.

The subject of assay [9] is DS-21 (dsDNA) (DNA, duplex) CCTTCACGCGAACGTAATCCT/AGGATTACGTTCGCGTGAAGG
The assay is described as follows: UV melting, 260 nm. To be noted: Na+ (10 mM Na cacodylate, 50 mM NaOAc); 1 equivalent Pt-BIMA.

Assay [10] deals with 4WJ-22 (DNA, junction) GCCTAGCATGATACTGCTACCG/CGGTAGCAGTACCGTTGGTGGC/GCCACCAACGGCGTCAACTGCC/GGCAGTTGACGTCATGCTAGGC
The assay is described as follows: PAGE gel shift. To be noted: Mg2+ 10 mM (MgCl2); band widens, no distinct shift. (In EMSA bound probe runs differently from free probe, usually more slowly.)

In assay [11] the test system is DS-21 (dsDNA) (DNA, duplex) CCTTCACGCGAACGTAATCCT/AGGATTACGTTCGCGTGAAGG
The assay is described as follows: MST competition, unlabelled DNA titrated. To be noted: Na+ 50 mM (NaOAc); IC50 of competitor DNA, not of compound; 20 nM FAM-4WJ-22, 80 nM Pt-BIMA; 10 mM HEPES, 0.1% Tween-20.

Assay [12] has as its system 3WJ (DNA, junction) CGGAACGGCACTCG/CGAGTGCAGCGTGG/CCACGCTCGTTCCG
The assay is described as follows: UV melting, 260 nm. To be noted: Na+ (10 mM Na cacodylate, 50 mM NaOAc); 1 equivalent Pt-BIMA.

Assay [13] relates to 4WJ-22 (DNA, junction) GCCTAGCATGATACTGCTACCG/CGGTAGCAGTACCGTTGGTGGC/GCCACCAACGGCGTCAACTGCC/GGCAGTTGACGTCATGCTAGGC
The assay is described as follows: UV melting, 260 nm. The conditions noted are these: Na+ (10 mM Na cacodylate, 50 mM NaOAc); 1 equivalent Pt-BIMA, 0.05% DMSO; biphasic.

Assay [14] relates to Y fork (DNA, junction) CGCACGTACGGAACGGCACTCGCTTGCTCG/CGAGCAAGCGAGTGCAGCGTGGATACATGC
The assay is described as follows: UV melting, 260 nm. To be noted: Na+ (10 mM Na cacodylate, 50 mM NaOAc); 1 equivalent Pt-BIMA.

Turning to `[Pd+2].[Pd+2].c1ccc2c(c1)ncn2Cc1c2ccccc2c(Cn2cnc3ccccc32)c2ccccc12.c1ccc2c(c1)ncn2Cc1c2ccccc2c(Cn2cnc3ccccc32)c2ccccc12.c1ccc2c(c1)ncn2Cc1c2ccccc2c(Cn2cnc3ccccc32)c2ccccc12.c1ccc2c(c1)ncn2Cc1c2ccccc2c(Cn2cnc3ccccc32)c2ccccc12`, the binding result in assay [1], in assay [2] and in assay [3] was “yes” each time.
The term IC50 denotes the concentration that gives 50% inhibition. The term ΔTm denotes the shift of the melting midpoint relative to a reference. Take `[Pt+2].[Pt+2].c1ccc2c(c1)ncn2Cc1c2ccccc2c(Cn2cnc3ccccc32)c2ccccc12.c1ccc2c(c1)ncn2Cc1c2ccccc2c(Cn2cnc3ccccc32)c2ccccc12.c1ccc2c(c1)ncn2Cc1c2ccccc2c(Cn2cnc3ccccc32)c2ccccc12.c1ccc2c(c1)ncn2Cc1c2ccccc2c(Cn2cnc3ccccc32)c2ccccc12`: the binding result is given as “no” in assay [4]; “yes” in [7]; “yes” in assay [1]; “weak” in assay [10]; “yes” in assay [2]; “yes” in [3]. The figures for the Kd in [5] and in assay [8] were 8.27 ± 1.11 x 10^-8 M and 1.90 ± 2.27 × 10^-6 M, respectively. In addition, the IC50 in assay [6] is 2.88 ± 0.42 x 10^-8 M; in [11], more than 25 µM. For the same compound, the thermal shift (ΔTm) worked out at 0.7 ± 0.9 °C in [9], 21.1 ± 0.1 °C in assay [12], 11.6 ± 0.6 °C in assay [13] and 5.4 ± 1.1 °C in assay [14].
